From patent US8993574B2, “Pyrrole antifungal agents” (F2G Ltd, priority 2008, dated 2015) come the findings set out here.

Converted amounts (≈) assume the structure as drawn.

Type in all cases: cell-based
Test [1] deals with Aspergillus flavus. Nature of the test: MIC, YAG medium. The following applies: Aspergillus flavus, 24 h, 24 h at 35° C, MIC banded into grades, read-out: MIC grade, A. flavus. In a few lines:
(§1)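 Broth microdilution in YAG medium tests compound over 50-0.05 mg/L against spores at 1−2×10^4 cfu/mL. After 24 h incubation at 35° C, optical density at 485 nm gives growth, and the MIC is the lowest concentration reducing it by more than 70% relative to untreated control.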

Test [2] relates to Aspergillus fumigatus AF210. The experiment in a line: MIC, YAG medium. The following applies: Aspergillus fumigatus, 24 h at 35° C, MIC banded into grades, read-out: MIC grade, A. fumigatus 210. In a few lines:
as §1

The test system of test [3] is Aspergillus fumigatus AF293. The experiment in a line: MIC, YAG medium. The following applies: Aspergillus fumigatus, 24 h at 35° C, MIC banded into grades, read-out: MIC grade, A. fumigatus. In a few lines: as §1
For test [4], the system named is Aspergillus niger. Nature of the test: MIC, YAG medium. The conditions noted are these: Aspergillus niger, 24 h at 35° C, MIC banded into grades, read-out: MIC grade, A. niger. The gist of the method: as §1
Test [5] deals with Aspergillus terreus AT49. The experiment in a line: MIC, YAG medium. The following applies: Aspergillus terreus, 24 h at 35° C, MIC banded into grades, read-out: MIC grade, A. terreus 49. In a few lines: as §1
For test [6], the system named is Aspergillus terreus AT4. Nature of the test: MIC, YAG medium. The conditions noted are these: Aspergillus terreus, 24 h at 35° C, MIC banded into grades, read-out: MIC grade, A. terreus. The gist of the method: as §1
Test [7] deals with Aspergillus flavus. Nature of the test: MIC, RPMI medium. The following applies: Aspergillus flavus, MIC banded into grades, read-out: MIC grade, A. flavus. The gist of the method:
(§2)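 Broth microdilution in RPMI with 2% glucose, 0.135 M MOPS pH 7.0; compounds as doubling dilutions, 50-0.05 mg/L, inoculum 1−2×10^4 cfu/mL. Incubated 24-48 h at 35° C; growth by OD 485 nm. MIC is lowest concentration giving >80% growth inhibition versus drug-free control.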

The test system of test [8] is Aspergillus fumigatus AF210. Nature of the test: MIC, RPMI medium. The conditions noted are these: Aspergillus fumigatus, AF210, MIC banded into grades, read-out: MIC grade, A. fumigatus 210. In a few lines:
as §2

Test [9] deals with Aspergillus fumigatus AF293. Nature of the test: MIC, RPMI medium. The conditions noted are these: Aspergillus fumigatus, AF293, MIC banded into grades, read-out: MIC grade, A. fumigatus. In a few lines:
as §2

Test [10] deals with Aspergillus niger. The experiment in a line: MIC, RPMI medium. The following applies: Aspergillus niger, MIC banded into grades, read-out: MIC grade, A. niger. In a few lines: as §2
The subject of test [11] is Aspergillus terreus AT49. Nature of the test: MIC, RPMI medium. The following applies: Aspergillus terreus, AT49, MIC banded into grades, read-out: MIC grade, A. terreus 49. In a few lines:
as §2

Test [12] deals with Aspergillus terreus AT4. Nature of the test: MIC, RPMI medium. The following applies: Aspergillus terreus, AT4, MIC banded into grades, read-out: MIC grade, A. terreus. The gist of the method: as §2

For the molecule `COCCn1c(C)cc(C(C)C)c1C(=O)C(=O)Nc1ccc(N2CCN(c3cc(C)cc(C)n3)CC2)cc1` [Example 25, N-{4-[4-(4,6-Dimethyl-pyridin-2-yl)-piperazin-1-yl]-phenyl}-2-[3-isopropyl-1-(2-methoxy-ethyl)-5-methyl-1H-pyrrol-2-yl]-2-oxo-acetamide], the MIC (usually the smallest concentration in the dilution series that meets the test's criterion for growth inhibition) with Aspergillus flavus [1] was 1 to 10 mg/L (≈ 1.93 to 19.3 µM); in test [2], under 1 mg/L; in [3] it was under 1 mg/L; in the test on Aspergillus niger [4], 1 to 10 mg/L (≈ 1.93 to 19.3 µM); in the test on Aspergillus terreus AT49 [5], 1 to 10 mg/L (≈ 1.93 to 19.3 µM); in the test on Aspergillus terreus AT4 [6] it was 1 to 10 mg/L (≈ 1.93 to 19.3 µM). Moreover, the minimal inhibitory concentration (MIC) in the test with Aspergillus flavus [7] is over 10 mg/L; in [8], 1 to 10 mg/L (≈ 1.93 to 19.3 µM); in [9] it was over 10 mg/L; in the test with Aspergillus niger [10] it was 1 to 10 mg/L (≈ 1.93 to 19.3 µM); in the test on Aspergillus terreus AT49 [11] it was over 10 mg/L; with Aspergillus terreus AT4 [12], over 10 mg/L.

As to `Cc1cc(-c2ccccc2)c(C(=O)C(=O)Nc2ccc(N3CCCCC3)c(F)c2)n1C` [Example 115, 2-(1,5-Dimethyl-3-phenyl-1H-pyrrol-2-yl)-N-(3-fluoro-4-piperidin-1-yl-phenyl)-2-oxo-acetamide], the minimum inhibitory concentration (MIC) (in the test on Aspergillus flavus [1]; in test [2]; in test [3]; with Aspergillus niger [4]; with Aspergillus terreus AT49 [5]; in the test on Aspergillus terreus AT4 [6]) was under 1 mg/L in each case. In addition, the MIC (in the test on Aspergillus flavus [7]; in test [8]; in test [9]; in the test on Aspergillus niger [10]; with Aspergillus terreus AT49 [11]; in the test on Aspergillus terreus AT4 [12]) was under 1 mg/L each time.

Turning to `Cc1cc(-c2ccccc2)c(C(=O)C(=O)Nc2ccc(N3CCCCC3)cc2F)n1C` [Example 106, 2-(1,5-Dimethyl-3-phenyl-1H-pyrrol-2-yl)-N-(2-fluoro-4-piperidin-1-yl-phenyl)-2-oxo-acetamide], the MIC (in the test on Aspergillus flavus [1]; in test [2]; in test [3]; in the test on Aspergillus niger [4]; in the test with Aspergillus terreus AT49 [5]; with Aspergillus terreus AT4 [6]) was under 1 mg/L in each case. Also, the MIC (in the test with Aspergillus flavus [7]; in test [8]; in test [9]; with Aspergillus niger [10]; with Aspergillus terreus AT49 [11]; in the test with Aspergillus terreus AT4 [12]) was under 1 mg/L in each case.

As to `C=C(C)CN1CCN(c2ccc(NC(=O)C(=O)c3c(-c4ccccc4)cc(C)n3C)c(F)c2)CC1` [Example 108, 2-(1,5-Dimethyl-3-phenyl-1H-pyrrol-2-yl)-N-{2-fluoro-4-[4-(2-methyl-allyl)-piperazin-1-yl]-phenyl}-2-oxo-acetamide], the minimal inhibitory concentration (MIC) (in the test on Aspergillus flavus [1]; in [2]; in test [3]; with Aspergillus niger [4]; with Aspergillus terreus AT49 [5]; in the test with Aspergillus terreus AT4 [6]) was under 1 mg/L throughout. Besides, the MIC (in the test with Aspergillus flavus [7]; in test [8]; in [9]; in the test with Aspergillus niger [10]; in the test with Aspergillus terreus AT49 [11]; with Aspergillus terreus AT4 [12]) was under 1 mg/L in each case.

Take `COCCn1c(C)cc(-c2ccccc2)c1C(=O)C(=O)Nc1ccc(N2CCN(CC(C)C)CC2)cc1F` [Example 110, N-[2-Fluoro-4-(4-isobutyl-piperazin-1-yl)-phenyl]-2-[1-(2-methoxy-ethyl)-5-methyl-3-phenyl-1H-pyrrol-2-yl]-2-oxo-acetamide]: the MIC with Aspergillus flavus [1] is 1 to 10 mg/L (≈ 1.92 to 19.2 µM); in [2], under 1 mg/L; in test [3] it was under 1 mg/L; in the test on Aspergillus niger [4], under 1 mg/L; with Aspergillus terreus AT49 [5], 1 to 10 mg/L (≈ 1.92 to 19.2 µM); with Aspergillus terreus AT4 [6], under 1 mg/L. Moreover, the MIC in the test with Aspergillus flavus [7] is 1 to 10 mg/L (≈ 1.92 to 19.2 µM); in test [8], under 1 mg/L; in [9] it was under 1 mg/L; with Aspergillus niger [10], 1 to 10 mg/L (≈ 1.92 to 19.2 µM); in the test with Aspergillus terreus AT49 [11], under 1 mg/L; with Aspergillus terreus AT4 [12] it was under 1 mg/L.

In the case of `Cc1cc(C)nc(N2CCN(c3ccc(NC(=O)C(=O)c4c(-c5ccccc5)cc(C)n4C)cc3Cl)CC2)c1` [Example 11, N-{3-Chloro-4-[4-(4,6-dimethyl-pyridin-2-yl)-piperazin-1-yl]-phenyl}-2-(1,5-dimethyl-3-phenyl-1H-pyrrol-2-yl)-2-oxo-acetamide], the MIC (in the test with Aspergillus flavus [1]; in [2]; in [3]; in the test with Aspergillus niger [4]; with Aspergillus terreus AT49 [5]; in the test on Aspergillus terreus AT4 [6]) was under 1 mg/L in each case. Besides, the MIC (with Aspergillus flavus [7]; in test [8]; in test [9]; in the test on Aspergillus niger [10]; in the test with Aspergillus terreus AT49 [11]; in the test with Aspergillus terreus AT4 [12]) was under 1 mg/L throughout.

Regarding `CCCNC(=O)C(=O)c1cc(-c2ccccc2)cn1CCOC` [Example 121, 2-[1-(2-Methoxy-ethyl)-4-phenyl-1H-pyrrol-2-yl]-2-oxo-N-propyl-acetamide], the MIC was over 10 mg/L in the test with Aspergillus flavus [1]; 1 to 10 mg/L (≈ 3.18 to 31.8 µM) in [2]; over 10 mg/L in test [3]; over 10 mg/L in the test with Aspergillus niger [4]; 1 to 10 mg/L (≈ 3.18 to 31.8 µM) in the test on Aspergillus terreus AT49 [5]; 1 to 10 mg/L (≈ 3.18 to 31.8 µM) in the test on Aspergillus terreus AT4 [6]. In addition, the MIC (in the test with Aspergillus flavus [7]; in test [8]; in test [9]; with Aspergillus niger [10]; with Aspergillus terreus AT49 [11]; in the test with Aspergillus terreus AT4 [12]) was over 10 mg/L each time.

Take `COCCn1c(C)cc(-c2ccccc2)c1C(=O)C(=O)Nc1ccc(N2CCOCC2)cc1F` [Example 117, N-(2-Fluoro-4-morpholin-4-yl-phenyl)-2-[1-(2-methoxy-ethyl)-5-methyl-3-phenyl-1H-pyrrol-2-yl]-2-oxo-acetamide]: the MIC with Aspergillus flavus [1] was under 1 mg/L; in test [2], 1 to 10 mg/L (≈ 2.15 to 21.5 µM); in test [3] it was under 1 mg/L; in the test on Aspergillus niger [4], under 1 mg/L; in the test on Aspergillus terreus AT49 [5] it was under 1 mg/L; in the test with Aspergillus terreus AT4 [6] it was under 1 mg/L. Moreover, the minimal inhibitory concentration (MIC) in the test with Aspergillus flavus [7] was over 10 mg/L; in test [8] it was 1 to 10 mg/L (≈ 2.15 to 21.5 µM); in test [9], 1 to 10 mg/L (≈ 2.15 to 21.5 µM); in the test with Aspergillus niger [10], under 1 mg/L; in the test with Aspergillus terreus AT49 [11], over 10 mg/L; in the test with Aspergillus terreus AT4 [12] it was 1 to 10 mg/L (≈ 2.15 to 21.5 µM).

With `Cc1cc(C)nc(N2CCN(c3ccc(NC(=O)C(=O)c4c(-c5ccccc5)c(F)c(C)n4C)cc3)CC2)c1` [Example 90, N-{4-[4-(4,6-Dimethyl-pyridin-2-yl)-piperazin-1-yl]-phenyl}-2-(4-fluoro-1,5-dimethyl-3-phenyl-1H-pyrrol-2-yl)-2-oxo-acetamide], the MIC (with Aspergillus flavus [1]; in [2]; in [3]; in the test with Aspergillus niger [4]; in the test on Aspergillus terreus AT49 [5]; in the test with Aspergillus terreus AT4 [6]) was under 1 mg/L throughout. In addition, the minimal inhibitory concentration (MIC) (in the test with Aspergillus flavus [7]; in test [8]; in test [9]; in the test on Aspergillus niger [10]; with Aspergillus terreus AT49 [11]; in the test on Aspergillus terreus AT4 [12]) was under 1 mg/L in each case.

For `COCCn1c(C)cc(-c2ccccc2)c1C(=O)C(=O)Nc1ccc(N2CCN(c3cc(C)cc(C)n3)CC2)cc1F` [Example 123, N-{4-[4-(4,6-Dimethyl-pyridin-2-yl)-piperazin-1-yl]-2-fluoro-phenyl}-2-[1-(2-methoxy-ethyl)-5-methyl-3-phenyl-1H-pyrrol-2-yl)-2-oxo-acetamide], the MIC (in the test on Aspergillus flavus [1]; in test [2]; in test [3]; in the test on Aspergillus niger [4]; in the test with Aspergillus terreus AT49 [5]; with Aspergillus terreus AT4 [6]) was under 1 mg/L throughout. Further, the minimal inhibitory concentration (MIC) in the test with Aspergillus flavus [7] is under 1 mg/L; in [8], under 1 mg/L; in test [9] it was under 1 mg/L; in the test on Aspergillus niger [10], under 1 mg/L; with Aspergillus terreus AT49 [11] it was 1 to 10 mg/L (≈ 1.76 to 17.6 µM); in the test with Aspergillus terreus AT4 [12] it was under 1 mg/L.
